Test results from US8119640B2, “Hedgehog pathway antagonists methods of use” (The Board of Trustees of the Leland Stanford Junior …, priority 2008, dated 2012).
“Also recorded” adds a separate entry of the source. Like-named read-outs stand apart in the source and are kept apart here.

What was measured:
Type in all cases: cell-based
[1] = molecular target: T1, Gli1 (Mus musculus, UniProt P47806); test: Hh pathway activation mediated by overexpression of Gli1; conditions: for Inhibition of Hh pathway activity induced by Gli1 overexpression: NIH-3T3 cells, Gli-dependent firefly luciferase; for IC50: NIH-3T3 cells overexpressing Gli1, read-out: IC50 (uM) Gli1 Transfected or Infection
T1 construct: expressed in transfected cells; host or cells: NIH-3T3
T1 sequence (P47806 1-1111): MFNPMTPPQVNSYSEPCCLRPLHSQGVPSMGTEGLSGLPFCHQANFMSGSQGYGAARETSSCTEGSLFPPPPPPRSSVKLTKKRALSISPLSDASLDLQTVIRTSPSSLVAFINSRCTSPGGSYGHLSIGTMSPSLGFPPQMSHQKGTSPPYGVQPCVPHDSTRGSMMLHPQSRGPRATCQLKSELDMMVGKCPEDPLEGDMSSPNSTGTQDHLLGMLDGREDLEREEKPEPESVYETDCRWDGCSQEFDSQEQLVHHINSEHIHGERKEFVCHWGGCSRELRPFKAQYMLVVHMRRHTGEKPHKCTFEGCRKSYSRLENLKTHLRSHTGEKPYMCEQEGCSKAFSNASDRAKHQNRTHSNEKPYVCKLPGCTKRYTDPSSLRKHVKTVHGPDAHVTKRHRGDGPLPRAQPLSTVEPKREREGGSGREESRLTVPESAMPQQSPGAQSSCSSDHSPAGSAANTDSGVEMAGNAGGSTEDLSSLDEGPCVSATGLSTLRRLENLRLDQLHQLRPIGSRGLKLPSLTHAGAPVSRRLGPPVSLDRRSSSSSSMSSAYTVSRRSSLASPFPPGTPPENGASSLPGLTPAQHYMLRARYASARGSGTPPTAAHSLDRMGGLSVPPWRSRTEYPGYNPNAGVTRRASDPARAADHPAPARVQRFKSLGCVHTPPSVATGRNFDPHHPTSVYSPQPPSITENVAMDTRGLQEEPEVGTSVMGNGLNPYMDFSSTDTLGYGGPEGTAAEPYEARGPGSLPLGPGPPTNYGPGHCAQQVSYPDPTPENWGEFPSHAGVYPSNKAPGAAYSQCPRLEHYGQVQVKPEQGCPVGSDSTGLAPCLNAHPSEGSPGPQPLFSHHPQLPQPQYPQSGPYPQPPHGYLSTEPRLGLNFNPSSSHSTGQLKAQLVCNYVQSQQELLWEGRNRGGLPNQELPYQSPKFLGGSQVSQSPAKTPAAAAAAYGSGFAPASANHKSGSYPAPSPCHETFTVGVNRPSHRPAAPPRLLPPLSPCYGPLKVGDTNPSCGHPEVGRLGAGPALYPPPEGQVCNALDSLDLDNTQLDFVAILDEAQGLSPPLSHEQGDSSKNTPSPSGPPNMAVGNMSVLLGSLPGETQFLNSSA
Protocol: (§1) Hh pathway activation mediated by the overexpression of Gli, Gli2, Gli2αPKA, or Gli2αGSK. […] The cells were co-transfected the following day with 220 ng/well pcDNA-derived Gli1, Gli2, or Gli2 phosphosite mutant expression vectors and 80 ng/well of a 1:15 mixture of phRLTK (Promega) and 8XGIiBS-FL. After transfection, cells were grown to confluence (approximately 48 h). The cell were then incubated for an additional 28-32 h in DMEM containing 0.5% CS, 100 U/mL penicillin, 0.1 mg/mL streptomycin, and either DMSO, 50 μM forskolin, 50 μM LY294002, or various concentrations of the HPIs. Firefly and Renilla luciferase activities were measured using a dual luciferase kit and a Veritas microplate luminometer.

[2] = test system: C3H10T(1/2) cells; test: C3H10T(1/2) assay for Hh pathway activation (alkaline phosphatase); conditions: Mus musculus
Protocol: C3H10T(1/2) assay for Hh pathway activation. C3H10T(1/2) cells (ATCC) were plated into 96-well plates using DMEM containing 10% FBS, 100 U/mL penicillin, 0.1 mg/mL streptomycin, 5% Shh-N-conditioned medium, and various concentrations of the Hh pathway inhibitors. After approximately 40 h, the cells were washed with PBS and lysed in 50 μL of buffer containing 50 mM Tris-HCl, pH 9.5, 150 mM NaCl, 5 mM MgCl2, and 1% Triton X-100. Alkaline phosphatase activities in the cell lysates were quantified by adding 10 μL of the lysate to 50 μL of CDP-Star chemiluminescence reagent (Perkin Elmer) and measuring the resulting chemiluminescence on a Veritas microplate luminometer.

[3] = test system: Hh pathway; test: Shh-LIGHT2 assay for Hh pathway activation (Gli-dependent firefly luciferase)
Protocol: Shh-LIGHT2 assay for Hh pathway activation and library screening conditions. h-N-conditioned medium was prepared as previously described. […] For 96-well plate assays, Shh-LIGHT2 cells were seeded into each plate (10,000 cells/well) and cultured to confluency. The Shh-LIGHT2 cells were then grown in DMEM containing 0.5% CS, 100 U/mL penicillin, 0.1 mg/mL streptomycin, either 5% Shh-N-conditioned medium or 500 nM SAG, and various concentrations of the HPIs. After the cells were cultured for another 30 h, the resulting firefly and Renilla luciferase activities were measured using a Dual Luciferase Reporter kit (Promega) and a Veritas microplate luminometer (Turner Biosystems).
When the cells reached >90% confluency, they were removed by trypsinization and diluted to a final volume of 50 mL medium. This cell suspension was then plated into clear-bottom, white-walled 384-well plates using a Titertek Multidrop dispenser (50 μL/well) and the cells were cultured until they reached confluency (3-4 days). […] The plates were then placed into an automated Staccato system (Caliper Life Sciences), which includes an automated CO2 incubator. An automated protocol was then run, in 3 which a Multidrop dispenser added 10 μL of a SAG solution in 0.5% CS medium (final SAG concentration of 500 nM) to columns 1-22 and 100 nL of each compound solution was added to the plates using a V&P Scientific pin tool, resulting in a final compound screening concentration of 10 μM. The SAG-free wells were used as negative controls. After 28-32 h, the assay medium was manually removed and the plates were frozen. To assay the firefly luciferase activities, the plates were thawed and placed into a Twister II stacker in the Staccato system. Bright-Glo luciferase substrate (Promega) was added by the Multidrop dispenser and the plates were analyzed on an Analyst GT microplate reader (2 min in the dark, 0.2 sec integration/well; Molecular Devices). Hits were defined as compounds that reduce the firefly luciferase signal by at least 50% compared to inhibitor-free controls. Primary hits were then re-tested in duplicate in an eight-point, 1:1 serially diluted doseresponse curve with a starting concentration of 20 μM. In these experiments, the median inhibitory concentration (IC50) for both firefly and Renilla luciferase were determined using a Dual-Glo kit (Promega).

[4] = molecular target: T2, Gli2 (Mus musculus, UniProt Q0VGT2); test: Hh pathway activation mediated by overexpression of Gli2; conditions: for Inhibition of Hh pathway activity induced by Gli2 overexpression: NIH-3T3 cells, Gli-dependent firefly luciferase; for IC50: NIH-3T3 cells overexpressing Gli2, read-out: IC50 (uM) Gli2 Transfected
T2 construct: expressed in transfected cells; host or cells: NIH-3T3
Protocol: as §1

[5] = C3H 10T1/2, Shh-induced differentiation, alkaline phosphatase, read-out: IC50 (uM) Shh/C3H10T[1/2] cells
[6] = SAG-stimulated Shh-LIGHT2 cells, firefly luciferase, read-out: median inhibitory concentrations (IC50s) in the screen
[7] = Shh Light2, stimulated with 500 nM SAG, read-out: IC50 (uM) SAG/Shh-LIGHT2 cells
[8] = Shh Light2, stimulated with Shh-N-conditioned medium, read-out: IC50 (uM) Shh/Shh-LIGHT2 cells

T2 sequence (Q0VGT2 whole entry): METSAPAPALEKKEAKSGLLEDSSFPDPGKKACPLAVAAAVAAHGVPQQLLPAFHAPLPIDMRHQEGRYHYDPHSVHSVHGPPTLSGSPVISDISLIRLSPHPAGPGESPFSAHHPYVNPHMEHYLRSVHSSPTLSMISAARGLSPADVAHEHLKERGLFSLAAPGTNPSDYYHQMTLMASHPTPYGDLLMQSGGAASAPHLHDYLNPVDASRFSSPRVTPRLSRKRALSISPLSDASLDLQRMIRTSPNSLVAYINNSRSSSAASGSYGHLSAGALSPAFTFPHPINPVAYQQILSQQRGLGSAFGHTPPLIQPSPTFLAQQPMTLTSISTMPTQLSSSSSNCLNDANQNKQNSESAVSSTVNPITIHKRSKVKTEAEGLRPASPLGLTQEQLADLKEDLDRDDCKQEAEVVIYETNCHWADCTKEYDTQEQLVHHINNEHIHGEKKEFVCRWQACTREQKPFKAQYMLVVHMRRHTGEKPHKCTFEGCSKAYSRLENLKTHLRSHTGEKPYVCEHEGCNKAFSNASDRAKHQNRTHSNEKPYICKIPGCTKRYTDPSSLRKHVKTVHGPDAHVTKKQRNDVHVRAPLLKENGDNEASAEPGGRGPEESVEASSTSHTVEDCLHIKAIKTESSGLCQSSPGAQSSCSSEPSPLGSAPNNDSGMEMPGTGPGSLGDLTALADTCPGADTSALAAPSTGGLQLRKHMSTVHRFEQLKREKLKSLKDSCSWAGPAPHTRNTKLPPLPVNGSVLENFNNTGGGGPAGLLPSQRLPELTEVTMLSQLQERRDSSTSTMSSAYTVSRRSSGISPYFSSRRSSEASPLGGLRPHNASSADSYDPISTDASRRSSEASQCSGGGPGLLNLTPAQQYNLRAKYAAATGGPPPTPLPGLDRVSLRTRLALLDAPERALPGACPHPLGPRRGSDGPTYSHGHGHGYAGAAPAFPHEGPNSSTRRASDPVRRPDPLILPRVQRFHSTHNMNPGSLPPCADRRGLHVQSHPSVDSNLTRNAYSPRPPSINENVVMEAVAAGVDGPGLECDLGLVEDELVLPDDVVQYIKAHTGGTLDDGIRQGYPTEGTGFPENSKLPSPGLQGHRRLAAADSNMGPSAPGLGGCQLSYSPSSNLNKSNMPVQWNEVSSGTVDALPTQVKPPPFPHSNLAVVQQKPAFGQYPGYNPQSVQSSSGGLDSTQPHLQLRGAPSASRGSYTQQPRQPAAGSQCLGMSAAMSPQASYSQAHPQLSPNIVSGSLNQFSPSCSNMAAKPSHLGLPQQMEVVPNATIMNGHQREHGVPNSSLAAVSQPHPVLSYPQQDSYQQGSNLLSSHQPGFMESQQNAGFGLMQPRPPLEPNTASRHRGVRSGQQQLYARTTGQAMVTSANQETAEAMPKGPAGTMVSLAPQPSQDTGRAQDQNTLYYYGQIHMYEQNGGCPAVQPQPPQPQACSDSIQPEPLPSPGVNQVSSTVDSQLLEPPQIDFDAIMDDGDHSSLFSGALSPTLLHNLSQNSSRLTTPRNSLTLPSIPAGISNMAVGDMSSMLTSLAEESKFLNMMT

SMILES | Inhibition of Hh pathway activity induced by Gli1 overexpression ([1]; listed as HPI-1) | IC50 [2, 5] | IC50 [3, 6] | IC50 [3, 7] | IC50 [3, 8] | Inhibition of Hh pathway activity induced by Gli2 overexpression ([4]; listed as HPI-1) | IC50 [1] | IC50 [4] | Toxicity noted in Gli1 Transfected or Infection column [1] | Toxicity noted in Gli2 Transfected column [4] | Inhibition of Hh pathway activity induced by Gli1 overexpression ([1]; listed as HPI-3) | Inhibition of Hh pathway activity induced by Gli2 overexpression ([4]; listed as HPI-3) | IC50 ([2]; C3H 10T1/2, read-out: IC50 (uM) Shh/C3H10T[1/2] cells) | IC50 ([3]; Shh Light2, read-out: IC50 (uM) SAG/Shh-LIGHT2 cells) | IC50 ([3]; Shh Light2, read-out: IC50 (uM) Shh/Shh-LIGHT2 cells)
COCCOC(=O)C1=C(C)NC2=C(C(=O)CC(c3ccccc3OC)C2)C1c1cccc(O)c1 (mixture of isomers) [Compound 8, 4-(3-Hydroxy-phenyl)-7-(2-methoxy-phenyl)-2-methyl-5-oxo-1,4,5,6,7,8-hexahydro-quinoline-3-carboxylic acid 2-methoxy-ethyl ester] | inhibit Gli-induced firefly luciferase expression in a dose-dependent manner; also recorded: inhibits | 0.4 µM | < 10 µM | 1.5 µM | 1.3 µM | inhibit Gli-induced firefly luciferase expression in a dose-dependent manner; also recorded: inhibits | – | – | – | – | – | – | – | – | –
N#Cc1cc2c(nc1SCC(=O)Nc1nc3ccccc3s1)CCC2 [Compound 1] | – | 0.9 µM | – | 0.21 µM | 0.25 µM | – | 1 µM | 3 µM | – | – | – | – | – | – | –
CCCCNC(=N)C(C)c1ccc(CC(C)C)cc1 (stereo not drawn) [Compound 2] | – | 0.8 µM | – | 2.2 µM | 1.6 µM | – | > 30 µM | > 30 µM | – | – | – | – | – | – | –
Cc1cc(/C=c2\sc3nc4ccccc4n3c2=O)c(C)n1C(C)C [Compound 3] | – | 0.9 µM | – | 0.55 µM | 0.5 µM | – | 1 µM | 2 µM | – | – | – | – | – | – | –
O=C(Nc1cccc2ccccc12)OC[C@@H]1CCCN2CCCC[C@H]12 [Compound 4] | – | 0.8 µM | – | 4 µM | 1.8 µM | – | > 30 µM | > 30 µM | – | – | – | – | – | – | –
CCC(C)NS(=O)(=O)c1ccc(Cc2ccc(S(=O)(=O)NC(C)CC)cc2)cc1 (stereo not drawn) [Compound 5] | – | 0.9 µM | – | 0.8 µM | 1 µM | – | 7 µM | 10 µM | – | – | – | – | – | – | –
CCOC(=O)c1cc2c(=O)n3ccccc3nc2n(C(C)C)c1=NC(=O)c1cc(OC)cc(OC)c1 [Compound 6] | – | 0.45 µM | – | 1 µM | 1 µM | – | 1.5 µM | 1.5 µM | – | – | – | – | – | – | –
CCN1CCCC1CNC(=O)C1CCN(c2nc3c(C)cc(C)cc3s2)CC1 (stereo not drawn) [Compound 7] | – | 0.8 µM | – | 1 µM | 1.6 µM | – | > 10 µM | > 10 µM | (Toxic at 30) | (Toxic at 30) | – | – | – | – | –
CCOC(=O)c1cn(-c2ccccc2)nc1-c1ccc(OC)c(OC)c1 [Compound 9] | – | 0.8 µM | – | 5 µM | 5 µM | – | > 30 µM | > 30 µM | – | – | – | – | – | – | –
O=S(=O)(Nc1cc(Cl)c(Cl)cc1Cl)c1ccc(F)cc1 [Compound 10] | – | 4 µM | – | 2.2 µM | 2.2 µM | – | 2 µM | 4 µM | – | – | – | – | – | – | –
OCCNc1nc(N2CCN(c3ccccc3)CC2)nc2ccccc12 [Compound 11] | – | 2 µM | < 10 µM | 1.5 µM | 2 µM | – | > 30 µM | > 30 µM | – | – | no significant activity; also recorded: inactive | no significant activity; also recorded: inactive | – | – | –
CC(C)(C)N(CCNS(=O)(=O)c1ccc(-c2cc(C(F)(F)F)no2)s1)Cc1ccco1 [Compound 12] | – | 0.25 µM | – | 2 µM | 2 µM | – | 4 µM | 15 µM | – | – | – | – | – | – | –
CN1CCN(C2Cc3ccccc3Sc3ccccc32)CC1 (stereo not drawn) [Compound 13] | – | 2.5 µM | – | 1.6 µM | 1.4 µM | – | > 30 µM | > 30 µM | – | – | – | – | – | – | –
CCOc1ccc2ncc(C(=O)c3ccc(C)cc3)c(N3CCCC3)c2c1 [Compound 14] | – | – | – | – | – | – | > 30 µM | 10 µM | – | – | – | – | 0.4 µM | 5.5 µM | 5.5 µM
O=C(Nc1nnc(S(=O)(=O)N2CCCCC2)s1)c1cccc(Br)c1 [Compound 15] | – | 4 µM | – | 5 µM | 4.5 µM | – | 12 µM | 25 µM | – | – | – | – | – | – | –
